Test results: patent publication US20260070899A1, “N-(2-(4-CYANOTHIAZOLIDIN-3-YL)-2-OXOETHYL)-QUINOLINE-4-CARBOXAMIDES” (AstraZeneca AB, priority 2022, published 2026)

How the values were obtained:
[1] = target: T1, FAP Human Plasma (Homo sapiens, UniProt Q12884); experiment: FAP plasma inhibition assay, human plasma; format: biochemical; conditions: human plasma dilution 1:40, Ala-Pro-AMC 75 μM; n = 1
T1 construct: Plasma (anticoagulant K2EDTA) was used as the enzyme source; tissue AZ Biobank; host or cells: pooled human plasma (K2EDTA)
T1 sequence (Q12884 24-760 limits assumed): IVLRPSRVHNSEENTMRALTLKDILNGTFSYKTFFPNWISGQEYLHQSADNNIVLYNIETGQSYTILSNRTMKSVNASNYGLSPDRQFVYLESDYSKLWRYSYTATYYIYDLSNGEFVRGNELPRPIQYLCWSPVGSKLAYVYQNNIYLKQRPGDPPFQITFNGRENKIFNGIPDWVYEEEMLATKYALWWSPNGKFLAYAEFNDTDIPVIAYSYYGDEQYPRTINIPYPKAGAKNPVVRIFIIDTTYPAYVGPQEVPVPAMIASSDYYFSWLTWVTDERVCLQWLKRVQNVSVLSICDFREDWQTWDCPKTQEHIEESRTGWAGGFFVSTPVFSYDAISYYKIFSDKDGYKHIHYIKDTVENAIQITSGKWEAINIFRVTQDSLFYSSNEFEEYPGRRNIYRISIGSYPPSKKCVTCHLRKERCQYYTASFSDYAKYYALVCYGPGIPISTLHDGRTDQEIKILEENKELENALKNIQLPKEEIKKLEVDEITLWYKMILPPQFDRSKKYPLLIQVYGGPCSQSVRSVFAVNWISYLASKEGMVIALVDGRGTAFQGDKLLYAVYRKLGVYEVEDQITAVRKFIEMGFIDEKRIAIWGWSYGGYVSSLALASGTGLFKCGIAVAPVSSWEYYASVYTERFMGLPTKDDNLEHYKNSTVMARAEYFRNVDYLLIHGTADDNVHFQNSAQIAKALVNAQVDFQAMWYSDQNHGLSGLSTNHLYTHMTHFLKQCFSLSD
Procedure: This assay was adapted from the method described in Example 89 for detection of FAP target engagement enzyme activity in plasma. Plasma (anticoagulant K2EDTA) was used as the enzyme source: Human plasma (Pooled from AZ Biobank) and Mouse plasma (AZ AST Biobank) and Cynomolgus plasma (BioIVT, #NHP00PLK2FNN, lot CYN222895). 384-Well black fluotrack PS plates (Greiner 781076) were used. 20 μL diluted plasma (Cynomolgus and Human plasma dilution 1:40, Mouse plasma dilution 1:67) in buffer (PBS, 0.1% BSA) was added to 0.6 μL compounds (in DMSO). Compounds were tested using 10 CR, 3 fold dilution series from 500 nM FAC. Two replicates for each assay point were run on the same plate. A fluorescence blank read was taken before substrate addition. Substrate, Ala-Pro-AMC (ARI-3144) stock solution (20 mM in DMSO) was diluted in buffer (PBS, 0.1% BSA) to 150 μM concentration and 20 μL added giving 75 μM FAC. Plates were incubated for 40 min at rt in the dark. The plates were read on a Beckman Paradigm® reader with excitation 360 nm and emission 465 nm. Data were analyzed in Excel (IDBS XLfit Add-In) using a one site dose response model (4-parameter logistic fit).

[2] = target: T2, Prolyl endopeptidase, Prolyl Oligopeptidase (hPREP) (Homo sapiens, UniProt P48147); experiment: biochemical
T2 sequence (P48147 1-710): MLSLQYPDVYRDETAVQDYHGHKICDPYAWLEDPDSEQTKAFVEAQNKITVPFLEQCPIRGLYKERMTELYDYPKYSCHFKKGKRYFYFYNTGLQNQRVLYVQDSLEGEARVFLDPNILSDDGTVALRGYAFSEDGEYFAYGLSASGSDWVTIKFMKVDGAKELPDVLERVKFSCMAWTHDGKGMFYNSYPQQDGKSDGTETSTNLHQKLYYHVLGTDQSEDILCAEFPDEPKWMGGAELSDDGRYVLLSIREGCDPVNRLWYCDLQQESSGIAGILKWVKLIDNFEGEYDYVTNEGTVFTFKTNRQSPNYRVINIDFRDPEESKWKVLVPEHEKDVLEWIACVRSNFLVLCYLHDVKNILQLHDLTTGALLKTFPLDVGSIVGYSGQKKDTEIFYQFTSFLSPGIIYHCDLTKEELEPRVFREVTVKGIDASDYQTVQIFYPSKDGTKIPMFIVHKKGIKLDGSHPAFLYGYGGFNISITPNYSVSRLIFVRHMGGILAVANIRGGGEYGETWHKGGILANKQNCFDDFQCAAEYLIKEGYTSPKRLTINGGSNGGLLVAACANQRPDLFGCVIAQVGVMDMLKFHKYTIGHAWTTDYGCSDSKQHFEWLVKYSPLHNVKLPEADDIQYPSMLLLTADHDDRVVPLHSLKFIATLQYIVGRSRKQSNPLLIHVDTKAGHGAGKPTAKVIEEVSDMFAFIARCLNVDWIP

SMILES	IC50 [1]	IC50 [2]
CC(C)(F)COc1ccc2nccc(C(=O)NCC(=O)N3CSC[C@H]3C#N)c2c1 [Example 3, (R)—N-(2-(4-Cyanothiazolidin-3-yl)-2-oxoethyl)-6-(2-fluoro-2-methylpropoxy)quinoline-4-carboxamide]	0.3 nM	950 nM
N#C[C@@H]1CSCN1C(=O)CNC(=O)c1ccnc2ccc(C3(O)CCOCC3)cc12 [Example 15, (R)—N-(2-(4-Cyanothiazolidin-3-yl)-2-oxoethyl)-6-(4-hydroxy-tetrahydro-2H-pyran-4-yl)quinoline-4-carboxamide]	0.3 nM	1100 nM
CC(C)(O)c1ccc2nccc(C(=O)NCC(=O)N3CSC[C@H]3C#N)c2c1 [Example 16, (R)—N-(2-(4-Cyanothiazolidin-3-yl)-2-oxoethyl)-6-(2-hydroxypropan-2-yl)quinoline-4-carboxamide]	0.9 nM	640 nM
COC(C)(C)c1ccc2nccc(C(=O)NCC(=O)N3CSC[C@H]3C#N)c2c1 [Example 18, (R)—N-(2-(4-Cyanothiazolidin-3-yl)-2-oxoethyl)-6-(2-methoxypropan-2-yl)quinoline-4-carboxamide]	1.5 nM	860 nM
N#C[C@@H]1CSCN1C(=O)CNC(=O)c1ccnc2ccc(C3CCOCC3)cc12 [Example 20, (R)—N-(2-(4-Cyanothiazolidin-3-yl)-2-oxoethyl)-6-(tetrahydro-2H-pyran-4-yl)quinoline-4-carboxamide]	0.3 nM	1000 nM
CCOC1(c2ccc3nccc(C(=O)NCC(=O)N4CSC[C@H]4C#N)c3c2)CCOCC1 [Example 23, (R)—N-(2-(4-Cyanothiazolidin-3-yl)-2-oxoethyl)-6-(4-ethoxytetrahydro-2H-pyran-4-yl)quinoline-4-carboxamide]	0.5 nM	1100 nM

Further lines, results first:

IC50 [1]	IC50 [2]	SMILES
0.5 nM	910 nM	N#C[C@@H]1CSCN1C(=O)CNC(=O)c1ccnc2ccc(C3CCCCO3)cc12 (mixture of isomers) [Example 32, N-(2-((R)-4-Cyanothiazolidin-3-yl)-2-oxoethyl)-6-((RS)-tetrahydro-2H-pyran-2-yl)quinoline-4-carboxamide]
0.1 nM	1000 nM	CO[C@H]1CC[C@H](c2ccc3nccc(C(=O)NCC(=O)N4CSC[C@H]4C#N)c3c2)CC1 (single isomer, unassigned) [Example 78, N-(2-((R)-4-Cyanothiazolidin-3-yl)-2-oxoethyl)-6-((1r,4R*)-4-methoxycyclohexyl)quinoline-4-carboxamide]
0.7 nM	120 nM	N#C[C@@H]1CSCN1C(=O)CNC(=O)c1ccnc2ccc(C3(C#N)CC3)cc12 [Example 70, (R)-6-(1-Cyanocyclopropyl)-N-(2-(4-cyanothiazolidin-3-yl)-2-oxoethyl)quinoline-4-carboxamide]
